In US3972882A, “Sym.-triazine carbamates” (Toyama Chemical Co., Ltd., priority 1973, dated 1976):
Read-outs that look alike come from different tables or passages of the source.

Key:
[1] = system: acetic acid-induced writhing; assay: Analgesic activity by the acetic acid-induced writhing test (K. Takagi et al. method); format: in vivo, ddY male mice
Source text: Analgesic activity by the acetic acid-induced writhing test [According to the K. Takagi et al. method [Journal of the Pharmaceutical Society of Japan, 78 553 (1958)], a test compound suspended in the solution including 0.5 % of Tween-80 was orally administered to a group of 8 ddY male mice weighing 20 to 24 g.]

toxicity test (LD50) = conditions: mouse, in vivo, mice
Source text: Therefore, the sym.-triazines of this invention are useful as an anti-inflammatory agent and analgesics.

carregeenin oedema = assay: Anti-carregeenin oedema activity (Winter method); format: in vivo, male rats
Source text: Anti-carregeenin oedema activity [According to the Winter method [Proc. Soc. exp. Biol. Med., 111 544 (1962)], a test compound suspended in the solution including 0.3 % of Tween-80 (a trade name of Atlas Powder Co., U.S.A.) was orally administered to a group of 5 male rats weighing 120 to 140 g.]
*1 Maximum oedema inhibition.
*2 Average oedema inhibition from 2 hrs to 5 hrs after the administration

[2] = Mus musculus, po, read-out: ED50

Compound	Inhibition (writhing) ([1]; 33.3 mg/kg p.o.)	Inhibition (writhing) ([1]; 100 mg/kg p.o.)	ED50 [1, 2]	Inhibition of oedema, Peak (maximum oedema inhibition) (carregeenin oedema; 70 mg/kg p.o.)	Inhibition of oedema, time of Peak (carregeenin oedema; 70 mg/kg p.o.)	Inhibition of oedema, Mean (average oedema inhibition from 2 hrs to 5 hrs after the administration) (carregeenin oedema; 70 mg/kg p.o.)	Inhibition of oedema, Peak (maximum oedema inhibition) (carregeenin oedema; 200 mg/kg p.o.)	Inhibition of oedema, time of Peak (carregeenin oedema; 200 mg/kg p.o.)	Inhibition of oedema, Mean (average oedema inhibition from 2 hrs to 5 hrs after the administration) (carregeenin oedema; 200 mg/kg p.o.)	Inhibition of oedema, Peak (maximum oedema inhibition) (carregeenin oedema; 500 mg/kg p.o.)	Inhibition of oedema, time of Peak (carregeenin oedema; 500 mg/kg p.o.)	Inhibition of oedema, Mean (average oedema inhibition from 2 hrs to 5 hrs after the administration) (carregeenin oedema; 500 mg/kg p.o.)	also measured
CCOC(=S)Nc1nc(OC)nc(OC)n1 [compound 4]	94.4%	96.9%	6.6 mg/kg	23.9%	2 h	21.8%	45.9%	2 h	35.4%	64.5%	2 h	50.6%	Inhibition (writhing) ([1]; 3.7 mg/kg p.o.): 7.6%; Inhibition (writhing) ([1]; 11.1 mg/kg p.o.): 89.4%; LD50 (toxicity test (LD50); ip, read-out: LD50 i.p.): 490 mg/kg; LD50 (toxicity test (LD50); po, read-out: LD50 p.o.): 1020 mg/kg
CCOC(=S)Nc1nc(O)nc(O)n1 [compound 10]	–	–	–	–	–	–	–	–	–	13.0%	2 h	–	–
methyl 2,4-diethoxy-sym.-triazinylthioncarbamate [No. 8]	–	–	–	–	–	–	–	–	–	16.3%	3 h	–	–
COC(=O)Nc1nc(OC)nc(OC)n1 [No. 1, methyl 2,4-dimethoxy-sym.-triazinylcarbamate]	–	16.3%	> 300 mg/kg	51.0%	2 h	44.6%	64.0%	2 h	49.5%	61.4%	2 h	52.8%	Inhibition (writhing) ([1]; 300 mg/kg p.o.): 34.7%
methyl 2,4-diphenoxy-sym.-triazinylthioncarbamate [No. 9]	–	–	–	–	–	–	27.1%	5 h	17.6%	–	2 h	–	Inhibition of oedema, Mean (average oedema inhibition from 2 hrs to 5 hrs after the administration) (carregeenin oedema; 500 mg/kg p.o., listed as 7): 27.6%; Inhibition of oedema, Mean (average oedema inhibition from 2 hrs to 5 hrs after the administration) (carregeenin oedema; 500 mg/kg p.o., listed as 8): 23.5%; Inhibition of oedema, Peak (maximum oedema inhibition) (carregeenin oedema; 500 mg/kg p.o., listed as 7): 37.4%; Inhibition of oedema, Peak (maximum oedema inhibition) (carregeenin oedema; 500 mg/kg p.o., listed as 8): 32.2%
COC(=S)Nc1nc(OC)nc(OC)n1 [No. 3, methyl 2,4-dimethoxy-sym.-triazinylthioncarbamate]	69.4%	77.2%	8 mg/kg	37.2%	2 h	24.7%	68.8%	2 h	46.7%	78.3%	2 h	61.0%	Inhibition (writhing) ([1]; 3.7 mg/kg p.o.): 11.9%; Inhibition (writhing) ([1]; 11.1 mg/kg p.o.): 67.9%; LD50 (toxicity test (LD50); ip, read-out: LD50 i.p.): 500 mg/kg; LD50 (toxicity test (LD50); po, read-out: LD50 p.o.): 1050 mg/kg
ethyl 2,4-dimethoxy-sym.-triazinyldithiocarbamate [No. 7]	16.5%	68.4%	–	–	–	–	–	–	–	38.0%	2 h	18.1%	ED50 ([1]; p.o.): 67.5 mg/kg
ethyl 2,4-dimethoxy-sym.-triazinylthiolcarbamate [No. 11]	–	2.9%	–	–	–	–	–	–	–	–	–	–	Inhibition (writhing) ([1]; 300 mg/kg p.o.): 50.3%; ED50 ([1]; p.o.): 300 mg/kg
ethyl 2,4-dihydroxy-sym.-triazinylthioncarbamate [No. 10]	–	–	–	–	–	–	–	–	–	17.5%	2 h	–	–
